The values below are quoted from earlier work in US11504387B2, “Bioconversion of oleuropein” (SOCIETE DES PRODUITS NESTLE S.A., priority 2017, dated 2022).

For data set [1] the following is noted: compared to caffeic acid, oleuropein and hydroxytyrosol.
The conditions of data set [2]: in vivo.
For data set [3] the following is noted: upper gastrointestinal tract and small intestine.
For data set [4] the following is noted: compared with hydroxytyrosol.

`CC=C1C(O)OC=C(C(=O)OC)C1CC(=O)OCCc1ccc(O)c(O)c1` (stereo not shown) [oleuropein aglycone, 3,4-dihydroxyphenylethanol-elenolic acid]: the antioxidant activity entry in data set [1] was “comparable to that of caffeic acid, oleuropein and hydroxytyrosol”. In addition, the “clearance from the plasma” value in data set [2] is “slower clearance from the plasma compared with hydroxytyrosol and oleuropein”.
With `C/C=C1/[C@H](O[C@@H]2O[C@H](CO)[C@@H](O)[C@H](O)[C@H]2O)OC=C(C(=O)OC)[C@H]1CC(=O)OCCc1ccc(O)c(O)c1` [oleuropein], the resistance to degradation entry in data set [3] was “resists degradation in the upper gastrointestinal tract and the small intestine”.
Consider hydroxytyrosol acetate, for which the “solubility in the lipophilic phases” value in data set [4] is reported as “more soluble in the lipophilic phases than hydroxytyrosol”.
